Key:
S. pombe Dcp1/2 = molecular target: T1, S. pombe Dcp1/2 (Schizosaccharomyces pombe, UniProt O13828); type: biochemical
T1 sequence (O13828 1-243 limits assumed): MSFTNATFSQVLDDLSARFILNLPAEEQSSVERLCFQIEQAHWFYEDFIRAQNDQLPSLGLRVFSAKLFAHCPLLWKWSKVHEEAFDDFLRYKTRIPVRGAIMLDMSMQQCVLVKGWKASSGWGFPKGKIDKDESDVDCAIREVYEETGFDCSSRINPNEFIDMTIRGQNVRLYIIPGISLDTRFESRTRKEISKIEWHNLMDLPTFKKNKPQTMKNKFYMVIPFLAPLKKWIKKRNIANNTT
T1 sequence (Q9P805 1-127 partner): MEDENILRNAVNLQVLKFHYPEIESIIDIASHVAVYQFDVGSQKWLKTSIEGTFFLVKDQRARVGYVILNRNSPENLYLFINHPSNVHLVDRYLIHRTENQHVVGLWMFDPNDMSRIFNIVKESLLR

SpDcp1/2 = molecular target: T2, SpDcp1/2 (Schizosaccharomyces pombe, UniProt O13828); test: Single-turnover kinetic inhibition assay, SpDcp1/2, 29-nt native-capped RNA; type: biochemical; details: read-out: KI (affinity for the free enzyme), Dcp1/2 complex, subsaturating enzyme
T2 sequence (O13828 1-243): T1 sequence (O13828 1-243 limits assumed)
T2 sequence (Q9P805 1-127 partner): T1 sequence (Q9P805 1-127 partner)

| SMILES | inhibitory properties towards Dcp1/2 decapping (in words) (S. pombe Dcp1/2) | Ki (SpDcp1/2) [µM] |
| --- | --- | --- |
| CO[C@H]1[C@@H](O)[C@H]([n+]2cn(C)c3c(=O)[nH]c(N)nc32)O[C@@H]1COP(=O)([O-])OP(=O)(O)OP(=O)(O)OC[C@H]1O[C@@H](n2cnc3c(=O)[nH]c(N)nc32)[C@H](O)[C@@H]1O [Compound 16, m2^7,3′-OGpppG] | poor Dcp1/2 inhibitors | – |
| C[n+]1cn([C@@H]2O[C@H](COP(=O)(O)OP(=O)([O-])OP(=O)(O)OP(=O)(O)OC[C@H]3O[C@@H](n4cnc5c(=O)[nH]c(N)nc54)[C@H](O)[C@@H]3O)[C@@H](O)[C@H]2O)c2nc(N)nc(O)c21 [Compound 17, m^7GppppG] | minimal | – |
| Nc1ncnc2c1ncn2[C@@H]1O[C@H](COP(=O)(O)OP(=O)(O)OP(=O)(O)O)[C@@H](O)[C@H]1O [Compound 18, ATP] | poor Dcp1/2 inhibitors | – |
| Nc1nc2c(ncn2[C@@H]2O[C@H](COP(=O)(O)OP(=O)(O)OP(=O)(O)O)[C@@H](O)[C@H]2O)c(=O)[nH]1 [Compound 19, GTP] | poor Dcp1/2 inhibitors | – |
| Cn1c[n+]([C@@H]2O[C@H](COP(=O)(O)OP(=O)([O-])OP(=O)(O)OC[C@H]3O[C@@H](n4cnc5c(=O)[nH]c(N)nc54)[C@H](O)[C@@H]3O)[C@@H](O)[C@H]2O)c2nc(N)[nH]c(=O)c21 [m^7GpppG] | – | 1400 ± 300 |

From article PMC4793208 (RNA, 2016)
